Measurements published in patent US12029738B2, “Antiproliferative compounds and methods of use thereof” (Celgene Corporation, priority 2017, dated 2024).
Read-outs that look alike come from different tables or passages of the source.

What was measured:
Test in all cases: Flow cytometry proliferation/apoptosis assay (120 h)
Type in all cases: cell-based, human
[1] = test system: JJN-3
Experimental: Methods. […] Using 5 mM stocks, compounds were pre-spotted into the appropriate wells of 96-well plates using a Hewlett-Packard D300 Digital Dispenser. Cells were added to 96-well plates using a Multidrop Combi Reagent Dispenser. After 5 days of treatment, flow cytometric analysis was used to determine the number of cells that were alive, dead, or apoptotic. After 5 days of treatment, cells were incubated with annexin V to stain exposed phosphatidylserine, an apoptotic cell-surface marker, and the vital dye 7-AAD, which is excluded from cells with intact cell membranes, and analyzed by flow cytometry (Attune®, Thermo Fisher). Analysis was then performed to determine the number of live cells (annexin V and 7-AAD double negative staining cells) and the percentage of apoptotic cells (annexin V positive cells) for each condition, relative to the DMSO control treated, was calculated. All described values were normalized to DMSO-only treated cells. […] The live cell count for every concentration was normalized to the DMSO control (considered as 100%) in Microsoft Excel to generate the proliferation curves. […] Similarly, for apoptosis analysis, the percentage of drug-induced apoptosis was calculated for all doses by combining both “early” (annexin V positive and 7-AAD negative) and “late” apoptosis (annexin V and 7-AAD positive) values and subtracting background values (cell treated with vehicle control DMSO). […] The area under the dose-response curve (AUC) was calculated since it integrates potency and efficacy of the drugs to represent apoptosis into a single parameter.
Each data point represents 2 independent experiments with at least two samples in each experiment.

[2] = test system: LP-1; conditions: for IC50: Homo sapiens, read-out: Antiproliferative Activity (Flow Cytometry) IC50; for induced apoptosis AUC (area under the dose response curve): scale 0-10000
Experimental: (§1) Methods. […] Twenty MM cell lines (Table 7 and 8) (including the plasma cell leukemia (PCL) cell lines L363, JJN-3, ARH-77, and SKMM-2) were treated in duplicate with escalating concentrations of Compound 2 or pomalidomide, ranging from 0.015 to 100 nM. Using 5 mM stocks, compounds were pre-spotted into the appropriate wells of 96-well plates using a Hewlett-Packard D300 Digital Dispenser. Cells were added to 96-well plates using a Multidrop Combi Reagent Dispenser. After 5 days of treatment, flow cytometric analysis was used to determine the number of cells that were alive, dead, or apoptotic. After 5 days of treatment, cells were incubated with annexin V to stain exposed phosphatidylserine, an apoptotic cell-surface marker, and the vital dye 7-AAD, which is excluded from cells with intact cell membranes, and analyzed by flow cytometry (Attune®, Thermo Fisher). Analysis was then performed to determine the number of live cells (annexin V and 7-AAD double negative staining cells) and the percentage of apoptotic cells (annexin V positive cells) for each condition, relative to the DMSO control treated, was calculated. All described values were normalized to DMSO-only treated cells. All proliferation and apoptosis induction curves were processed and graphed as percent of control using XLFit (IDBS, Alameda, CA) and GraphPad Prism 7.03 (GraphPad Software, La Jolla, CA). The live cell count for every concentration was normalized to the DMSO control (considered as 100%) in Microsoft Excel to generate the proliferation curves. […] Similarly, for apoptosis analysis, the percentage of drug-induced apoptosis was calculated for all doses by combining both “early” (annexin V positive and 7-AAD negative) and “late” apoptosis (annexin V and 7-AAD positive) values and subtracting background values (cell treated with vehicle control DMSO). The AUC values for apoptosis curves were calculated by performing area under curve analysis on GraphPad Prism 7.03. The area under the dose-response curve (AUC) was calculated since it integrates potency and efficacy of the drugs to represent apoptosis into a single parameter. The IC50 values for Compound 2 and pomalidomide in the flow cytometry assays are presented Table 9.
(§2) The apoptosis induction effect of Compound 2 was assessed using flow cytometry after 120 h of treatment and compared with pomalidomide treatment. […] Each data point represents 2 independent experiments with at least two samples in each experiment. (Table 10).

[3] = test system: ANBL-6; conditions: for IC50: Homo sapiens, read-out: Antiproliferative Activity (Flow Cytometry) IC50; for induced apoptosis AUC (area under the dose response curve): scale 0-10000
Experimental: as §1, §2

[4] = test system: RPMI-8226; conditions: for IC50: Homo sapiens, read-out: Antiproliferative Activity (Flow Cytometry) IC50; for induced apoptosis AUC (area under the dose response curve): scale 0-10000
Experimental: (§3) Methods. […] Using 5 mM stocks, compounds were pre-spotted into the appropriate wells of 96-well plates using a Hewlett-Packard D300 Digital Dispenser. Cells were added to 96-well plates using a Multidrop Combi Reagent Dispenser. After 5 days of treatment, flow cytometric analysis was used to determine the number of cells that were alive, dead, or apoptotic. After 5 days of treatment, cells were incubated with annexin V to stain exposed phosphatidylserine, an apoptotic cell-surface marker, and the vital dye 7-AAD, which is excluded from cells with intact cell membranes, and analyzed by flow cytometry (Attune®, Thermo Fisher). Analysis was then performed to determine the number of live cells (annexin V and 7-AAD double negative staining cells) and the percentage of apoptotic cells (annexin V positive cells) for each condition, relative to the DMSO control treated, was calculated. All described values were normalized to DMSO-only treated cells. All proliferation and apoptosis induction curves were processed and graphed as percent of control using XLFit (IDBS, Alameda, CA) and GraphPad Prism 7.03 (GraphPad Software, La Jolla, CA). The live cell count for every concentration was normalized to the DMSO control (considered as 100%) in Microsoft Excel to generate the proliferation curves. […] Similarly, for apoptosis analysis, the percentage of drug-induced apoptosis was calculated for all doses by combining both “early” (annexin V positive and 7-AAD negative) and “late” apoptosis (annexin V and 7-AAD positive) values and subtracting background values (cell treated with vehicle control DMSO). The AUC values for apoptosis curves were calculated by performing area under curve analysis on GraphPad Prism 7.03. The area under the dose-response curve (AUC) was calculated since it integrates potency and efficacy of the drugs to represent apoptosis into a single parameter. The IC50 values for Compound 2 and pomalidomide in the flow cytometry assays are presented Table 9.
as §2

[5] = test system: CAG; conditions: for IC50: Homo sapiens, read-out: Antiproliferative Activity (Flow Cytometry) IC50; for induced apoptosis AUC (area under the dose response curve): scale 0-10000
Experimental: as §3, §2

[6] = test system: EJM; conditions: for IC50: Homo sapiens, read-out: Antiproliferative Activity (Flow Cytometry) IC50; for induced apoptosis AUC (area under the dose response curve): scale 0-10000
Experimental: as §3, §2

[7] = test system: KMS34; conditions: for IC50: Homo sapiens, KMS-34, KMS34, read-out: Antiproliferative Activity (Flow Cytometry) IC50; for induced apoptosis AUC (area under the dose response curve): KMS-34, scale 0-10000
Experimental: as §3, §2

[8] = test system: ARH-77; conditions: for IC50: Homo sapiens, read-out: Antiproliferative Activity (Flow Cytometry) IC50; for induced apoptosis AUC (area under the dose response curve): scale 0-10000
Experimental: as §3, §2

[9] = test system: NCI-H929-1051; conditions: for induced apoptosis AUC (area under the dose response curve): H929-1051, scale 0-10000; for IC50: Homo sapiens, NCI-H929-1051, read-out: Antiproliferative Activity (Flow Cytometry) IC50
Experimental: as §3, §2

[10] = test system: KMS-11; conditions: for IC50: Homo sapiens, read-out: Antiproliferative Activity (Flow Cytometry) IC50; for induced apoptosis AUC (area under the dose response curve): scale 0-10000
Experimental: as §3, §2

[11] = JJN-3 (DSMZ); 120 h; scale 0-10000

SMILES | induced apoptosis AUC (area under the dose response curve) [1, 11] | IC50 [2] | induced apoptosis AUC (area under the dose response curve) [2] | IC50 [3] | induced apoptosis AUC (area under the dose response curve) [3] | IC50 [4] | induced apoptosis AUC (area under the dose response curve) [4] | IC50 [5] | induced apoptosis AUC (area under the dose response curve) [5] | IC50 [6] | induced apoptosis AUC (area under the dose response curve) [6] | IC50 [7] | induced apoptosis AUC (area under the dose response curve) [7] | IC50 [8] | induced apoptosis AUC (area under the dose response curve) [8] | induced apoptosis AUC (area under the dose response curve) [9] | IC50 [9] | IC50 [10] | induced apoptosis AUC (area under the dose response curve) [10] | further results
N#Cc1ccc(N2CCN(Cc3ccc(COc4cccc5c4CN([C@H]4CCC(=O)NC4=O)C5=O)cc3)CC2)c(F)c1 [Compound 2, (S)-4-(4-(4-(((2-(2,6-dioxopiperidin-3-yl)-1-oxoisoindolin-4-yl)oxy)methyl)benzyl)piperazin-1-yl)-3-fluorobenzonitrile] | 1125 | 0.14 nM | 630.7 | 0.06 nM | 4751 | 0.75 nM | 3245 | 0.12 nM | 5804 | 0.43 nM | 2591 | 0.45 nM | 1614 | > 10000 nM | 709 | 3968 | 0.45 nM | 1.41 nM | 1270 | IC50 ([1]; Homo sapiens, JJN-3, 120 h, read-out: Antiproliferative Activity (Flow Cytometry) IC50): 0.1 nM
Nc1cccc2c1C(=O)N(C1CCC(=O)NC1=O)C2=O (stereo not shown) [Pomalidomide, pomalidomide] | 199.1 | 176 nM | 174 | 60.6 nM | 2580 | > 10000 nM | 1369 | 1080 nM | 1561 | 2840 nM | 900 | > 10000 nM | 429.7 | > 10000 nM | 28.16 | 423 | 1950 nM | 5290 nM | 234.4 | IC50 ([1]; Homo sapiens; JJN-3; 120 h; read-out: Antiproliferative Activity (Flow Cytometry) IC50): 366 nM
